Reference: patent US20250235460A1, “COMBINATION THERAPY USING GLUCOSE-DEPENDENT INSULINOTROPIC POLYPEPTIDE RECEPTOR ANTAGONIST COMPOUNDS AND GLP-1 RECEPTOR AGONIST COMPOUNDS” (Pfizer Inc., priority 2024, published 2025)

What was measured:
human GLP-1R [1] = molecular target: human GLP-1R (Homo sapiens, UniProt P43220, G168S); assay: CHO GLP-1R Clone H6 cAMP HTRF agonist assay (Assay 1, high receptor density); format: cell-based; details: for EC50: CHO GLP-1R clone H6, cAMP HTRF, geometric mean; for Emax: CHO GLP-1R clone H6, arithmetic mean, relative to saturating GLP-1 (1 μM), read-out: Assay 1 Emax (%)
Sequence of human GLP-1R (Homo sapiens, UniProt P43220, G168S) (P43220 24-463 G168S): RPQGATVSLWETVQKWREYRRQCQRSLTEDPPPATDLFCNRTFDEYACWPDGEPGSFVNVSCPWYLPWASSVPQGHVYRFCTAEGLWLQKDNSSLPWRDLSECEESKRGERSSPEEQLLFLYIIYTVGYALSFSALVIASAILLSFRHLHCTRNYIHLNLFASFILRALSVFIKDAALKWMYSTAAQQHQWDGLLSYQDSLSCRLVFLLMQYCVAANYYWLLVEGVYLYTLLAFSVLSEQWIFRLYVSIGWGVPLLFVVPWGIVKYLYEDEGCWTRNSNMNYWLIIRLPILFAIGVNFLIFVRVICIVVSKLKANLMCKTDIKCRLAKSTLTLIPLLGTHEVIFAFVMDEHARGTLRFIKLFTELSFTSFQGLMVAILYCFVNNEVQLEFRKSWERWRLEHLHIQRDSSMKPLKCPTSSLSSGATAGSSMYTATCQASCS
In short: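 EC50 values are reported as geometric means and Emax as arithmetic means across the listed number of replicates, both given to two significant figures.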

human GLP-1R [2] = molecular target: human GLP-1R (Homo sapiens, UniProt P43220, L260F); assay: CHO GLP-1R Clone C6 cAMP HTRF agonist assay (Assay 2, low receptor density); format: cell-based; details: for EC50: CHO GLP-1R clone C6, cAMP HTRF, geometric mean; for Emax: CHO GLP-1R clone C6, arithmetic mean, relative to saturating GLP-1 (1 μM)
Sequence of human GLP-1R (Homo sapiens, UniProt P43220, L260F) (P43220 24-463 L260F): as the sequence (P43220 24-463 G168S) above, with S145G, L237F counted along it
From the text: In Table 5 and Table 6, assay data are presented to two (2) significant figures as the geometric mean (EC50s) and arithmetic mean (Emax) based on the number of replicates listed (Number). A blank cell means there was no data for that Example or the Emax was not calculated.

Row | SMILES | EC50 (human GLP-1R [1]) [nM] | Emax (human GLP-1R [1]) [%] | EC50 (human GLP-1R [2]) [nM] | Emax (human GLP-1R [2]) [%]
1 | O=C(O)c1ccc2nc(CN3CCC(c4cccc(OCc5ccc(Cl)cc5F)n4)CC3)n(CC3CCC3)c2c1 [Compound 291B, 2-[(4-{6-[(4-chloro-2-fluorobenzyl)oxy]pyridin-2-yl}piperidin-1-yl)methyl]-1-(cyclobutylmethyl)-1H-benzimidazole-6-carboxylic acid] | 54 | 77 | 1200 | 82
2 | O=C(O)c1ccc2nc(CN3CCC(c4cccc(OCc5ccc(Cl)cc5F)n4)CC3)n(CCn3cncn3)c2c1 [Compound 292B, 2-[(4-{6-[(4-chloro-2-fluorobenzyl)oxy]pyridin-2-yl}piperidin-1-yl)methyl]-1-[2-(1H-1,2,4-triazol-1-yl)ethyl]-1H-benzimidazole-6-carboxylic acid] | 55 | 71 | 1700 | 99
3 | CCOC(C)Cn1c(CN2CCC(c3cccc(OCc4ccc(Cl)cc4F)n3)CC2)nc2ccc(C(=O)O)cc21 (stereo not drawn) [Compound 293B, 2-[(4-{6-[(4-chloro-2-fluorobenzyl)oxy]pyridin-2-yl}piperidin-1-yl)methyl]-1-(2-ethoxypropyl)-1H-benzimidazole-6-carboxylic acid] | 56 | 81 | 590 | 85
4 | COCCn1cnnc1Cn1c(CN2CCC(c3cccc(OCc4ccc(Cl)cc4F)n3)CC2)nc2ccc(C(=O)O)cc21 [Compound 294B, 2-[(4-{6-[(4-chloro-2-fluorobenzyl)oxy]pyridin-2-yl}piperidin-1-yl)methyl]-1-{[4-(2-methoxyethyl)-4H-1,2,4-triazol-3-yl]methyl}-1H-benzimidazole-6-carboxylic acid] | 72 | 76 | 1500 | 81
5 | O=C(O)c1ccc2nc(CN3CCC(c4cccc(OCc5ccc(Cl)cc5F)n4)CC3)n(CCN3CCOC3=O)c2c1 [Compound 295B, 2-[(4-{6-[(4-chloro-2-fluorobenzyl)oxy]pyridin-2-yl}piperidin-1-yl)methyl]-1-[2-(2-oxo-1,3-oxazolidin-3-yl)ethyl]-1H-benzimidazole-6-carboxylic acid] | 87 |  | 3100 | 110
6 | Cn1nccc1Cn1c(CN2CCC(c3cccc(OCc4ccc(Cl)cc4F)n3)CC2)nc2ccc(C(=O)O)cc21 [Compound 296B, 2-[(4-{6-[(4-chloro-2-fluorobenzyl)oxy]pyridin-2-yl}piperidin-1-yl)methyl]-1-[(1-methyl-1H-pyrazol-5-yl)methyl]-1H-benzimidazole-6-carboxylic acid] | 96 | 86 | 1400 | 94
7 | COC(C)(C)Cn1c(CN2CCC(c3cccc(OCc4ccc(Cl)cc4F)n3)CC2)nc2ccc(C(=O)O)cc21 [Compound 297B, 2-[(4-{6-[(4-chloro-2-fluorobenzyl)oxy]pyridin-2-yl}piperidin-1-yl)methyl]-1-(2-methoxy-2-methylpropyl)-1H-benzimidazole-6-carboxylic acid] | 110 | 70 | 3500 | 95
8 | O=C(O)c1ccc2nc(CN3CCC(c4cccc(OCc5ccc(Cl)cc5F)n4)CC3)n(Cc3c[nH]nn3)c2c1 [Compound 298B, 2-[(4-{6-[(4-chloro-2-fluorobenzyl)oxy]pyridin-2-yl}piperidin-1-yl)methyl]-1-(1H-1,2,3-triazol-4-ylmethyl)-1H-benzimidazole-6-carboxylic acid] | 110 | 74 | 2700 | 
9 | O=C(O)c1ccc2nc(CN3CCC(c4cccc(OCc5ccc(Cl)cc5F)n4)CC3)n(Cc3cc[nH]n3)c2c1 [Compound 299B, 2-[(4-{6-[(4-chloro-2-fluorobenzyl)oxy]pyridin-2-yl}piperidin-1-yl)methyl]-1-(1H-pyrazol-3-ylmethyl)-1H-benzimidazole-6-carboxylic acid] | 110 | 79 | 2200 | 

Other lines, results leading:

Row | EC50 (human GLP-1R [1]) [nM] | Emax (human GLP-1R [1]) [%] | EC50 (human GLP-1R [2]) [nM] | Emax (human GLP-1R [2]) [%] | SMILES
10 | 120 | 93 | 1300 | 96 | O=C(O)c1ccc2nc(CN3CCC(c4cccc(OCc5ccc(Cl)cc5F)n4)CC3)n(Cc3nnc[nH]3)c2c1 [Compound 300B, 2-[(4-{6-[(4-chloro-2-fluorobenzyl)oxy]pyridin-2-yl}piperidin-1-yl)methyl]-1-(4H-1,2,4-triazol-3-ylmethyl)-1H-benzimidazole-6-carboxylic acid]
11 | 120 | 80 | 1500 | 92 | O=C(O)c1ccc2nc(CN3CCC(c4cccc(OCc5ccc(Cl)cc5F)n4)CC3)n(C3CCOC3)c2c1 (stereo not drawn) [Compound 301B, 2-[(4-{6-[(4-chloro-2-fluorobenzyl)oxy]pyridin-2-yl}piperidin-1-yl)methyl]-1-(tetrahydrofuran-3-yl)-1H-benzimidazole-6-carboxylic acid]
12 | 190 | 80 | 3600 | 93 | Cc1ccn(CCn2c(CN3CCC(c4cccc(OCc5ccc(Cl)cc5F)n4)CC3)nc3ccc(C(=O)O)cc32)n1 [Compound 306B, 2-[(4-{6-[(4-chloro-2-fluorobenzyl)oxy]pyridin-2-yl}piperidin-1-yl)methyl]-1-[2-(3-methyl-1H-pyrazol-1-yl)ethyl]-1H-benzimidazole-6-carboxylic acid]
13 | 450 | 71 | 5600 | 76 | O=C(O)c1ccc2nc(CN3CCC(c4cccc(OCc5ccc(Cl)cc5F)n4)CC3)n(CCc3c[nH]cn3)c2c1 [Compound 316B, 2-[(4-{6-[(4-chloro-2-fluorobenzyl)oxy]pyridin-2-yl}piperidin-1-yl)methyl]-1-[2-(1H-imidazol-4-yl)ethyl]-1H-benzimidazole-6-carboxylic acid]
14 | 63 | 78 | 2000 | 82 | COC1CCN(CCn2c(CN3CCC(c4cccc(OCc5ccc(Cl)cc5F)n4)CC3)nc3ccc(C(=O)O)cc32)CC1 [Compound 331B, 2-[(4-{6-[(4-chloro-2-fluorobenzyl)oxy]pyridin-2-yl}piperidin-1-yl)methyl]-1-[2-(4-methoxypiperidin-1-yl)ethyl]-1H-benzimidazole-6-carboxylic acid]
15 | 5.3 | 76 | 21 | 84 | Cc1cc(C)n(CCn2c(CN3CCC(c4cccc(OCc5ccc(Cl)cc5F)n4)CC3)nc3ccc(C(=O)O)cc32)n1 [Compound 332B, 2-[(4-{6-[(4-chloro-2-fluorobenzyl)oxy]pyridin-2-yl}piperidin-1-yl)methyl]-1-[2-(3,5-dimethyl-1H-pyrazol-1-yl)ethyl]-1H-benzimidazole-6-carboxylic acid]
16 | 0.7 | 86 | 10 | 89 | Cc1cc(Cn2c(CN3CCC(c4cccc(OCc5ccc(Cl)cc5F)n4)CC3)nc3ccc(C(=O)O)cc32)[nH]n1 [Compound 333B, 2-[(4-{6-[(4-chloro-2-fluorobenzyl)oxy]pyridin-2-yl}piperidin-1-yl)methyl]-1-[(3-methyl-1H-pyrazol-5-yl)methyl]-1H-benzimidazole-6-carboxylic acid]
17 | 30 | 73 | 570 | 93 | Cc1n[nH]c(Cn2c(CN3CCC(c4cccc(OCc5ccc(Cl)cc5F)n4)CC3)nc3ccc(C(=O)O)cc32)n1 [Compound 334B, 2-[(4-{6-[(4-chloro-2-fluorobenzyl)oxy]pyridin-2-yl}piperidin-1-yl)methyl]-1-[(3-methyl-1H-1,2,4-triazol-5-yl)methyl]-1H-benzimidazole-6-carboxylic acid]
18 | 5 | 82 | 41 | 77 | CC(c1cnn(C)n1)n1c(CN2CCC(c3cccc(OCc4ccc(Cl)cc4F)n3)CC2)nc2ccc(C(=O)O)cc21 (stereo not drawn) [Compound 335B, 2-[(4-{6-[(4-chloro-2-fluorobenzyl)oxy]pyridin-2-yl}piperidin-1-yl)methyl]-1-[1-(2-methyl-2H-1,2,3-triazol-4-yl)ethyl]-1H-benzimidazole-6-carboxylic acid]
19 | 150 | 68 | 5300 | 80 | Cc1ccc(Cn2c(CN3CCC(c4cccc(OCc5ccc(Cl)cc5F)n4)CC3)nc3ccc(C(=O)O)cc32)cn1 [Compound 336B, 2-[(4-{6-[(4-chloro-2-fluorobenzyl)oxy]pyridin-2-l}piperidin-1-yl)methyl]-1-[(6-methylpyridin-3-yl)methyl]-1H-benzimidazole-6-carboxylic acid]
20 | 36 | 71 | 1600 | 82 | O=C(O)c1ccc2nc(CN3CCC(c4cccc(OCc5ccc(Cl)cc5F)n4)CC3)n(Cc3n[nH]c(C4CC4)n3)c2c1 [Compound 339B, 2-[(4-{6-[(4-chloro-2-fluorobenzyl)oxy]pyridin-2-yl}piperidin-1-yl)methyl]-1-[(5-cyclopropyl-1H-1,2,4-triazol-3-yl)methyl]-1H-benzimidazole-6-carboxylic acid]
21 | 37 | 69 | 1200 | 83 | O=C(O)c1ccc2nc(CN3CCC(c4cccc(OCc5ccc(Cl)cc5F)n4)CC3)n(Cc3ccon3)c2c1 [Compound 344B, 2-[(4-{6-[(4-chloro-2-fluorobenzyl)oxy]pyridin-2-yl}piperidin-1-yl)methyl]-1-(1,2-oxazol-3-ylmethyl)-1H-benzimidazole-6-carboxylic acid]
